# Source: publication PMC12320299 (Chemical Science, 2025)
# Columns and labels:
# [1] = biological target: T1, ATP-dependent RNA helicase DDX3X (Homo sapiens, UniProt O00571); assay: Peptide centric local stability assay in SW480 whole cell lysate; type: binding; conditions: 1 μM
# T1 construct: endogenous in cells; host or cells: SW480 whole cell lysate
# Description: The method relies on a limited-proteolysis strategy, where ligand-binding on target proteins is expected to increase the stability of the proteins against proteolytic digestion. This specifically enables the identification of target proteins of small molecules. […] Being a ruthenium(arene) derivative, plecstatin-1 was used to assess potential non-specific interactors of the ruthenium(cymene) fragment. […] However, among the selective interaction partners, we found specific peptides of ATP-dependent RNA helicase DDX3X, tubulin alpha-1A (TUBA1A) and albumin (ALB). Several peptides of TUBA1A and ALB were also found to be stabilized by plecstatin-1 indicating low specificity.
# Peptide Local Stability Assay
# SW480 cancer cells were cultivated in complete medium as above in two T75 adherent flasks.
# The protein extraction was performed on ice. The flasks were washed twice with PBS (1×, 5 mL) and the wash solution was completely removed. Then, PBS (1×, 2mL, containing 1% PPC) was added in each T75 flak. The cells were scraped off and the cell suspension was transferred to 15 mL falcon tubes. […]
# The clear supernatant was pooled in a 5 mL Eppendorf tube and kept on ice. The protein concentration was determined using a BCA assay as described above and adjusted to 1 µg/µL using PBS (1×, containing 1% PPC). […]
# [2] = test system: SW480; set-up: method as in earlier work; conditions: 96 h incubation; ref 48 (ESI Ref. 1); cited from earlier work
# [3] = test system: CH1/PA-1; set-up: method as in Ref. 1 (ESI); conditions: 96 h incubation; ref Ref. 1 (ESI); cited from earlier work
# [4] = Reactivity with mixture of small biological nucleophiles by ESI-MS; type: physicochemical; conditions: for reaction with nucleophile mixture within 24 h: 50 μM; for Intact compound after 24 h, nucleophile mixture: equimolar Cys/Met/His/ATP/GTP, each 50 μM, ESI-MS
# Experimental: Then, the compounds were analogously incubated with an equimolar mixture of cysteine, methionine, histidine, adenosine triphosphate and guanosine triphosphate to verify coordination preferences for amino acids over nucleotides. The reactivity of the four compounds was qualitatively similar, characterized by release of the NQ ligands and formation of mainly methionine and histidine-adducts with the metal(arene) (ESI, Fig. S13 ^†). No metalation of the nucleotides was observed. In contrast to other O,O-ligand systems, which are typically deactivated within minutes by ligand release under such conditions,[51,52] the N,O,O-tridentate organometallics studied here were characterized by increased stability. […] Again, the 3-Morph-NQ ligand was detected upon release from the metal centre, but hydrolysis dimers were not observed in the presence of bionucleophiles (ESI, Fig. S13 ^†). The reactivity of the compounds towards an equimolar concentration of the model protein ubiquitin was characterized by similar kinetic behaviours and reactivity (ESI, Fig. S14 ^†). […]
# aliquot was used for stability testing of the respective test substance in aqueous solution. […]
# 2b were equimolarly added (50 µM) to a mixture of three amino acids and two nucleotides (Cys/Met/His/ATP/GTP; each 50 µM in aqueous solution) to test the interaction with small biological nucleophiles. All samples were mixed and incubated in a shaking incubator at 37 °C with speed set to 1000 rpm in the dark (Eppendorf ThermoMixer® C). After 1.5 h, 24 h and 72 h, 300 µL per sample were transferred to fresh reaction vessels, immediately frozen in liquid N2 and stored at –20 °C until measurement.
# Samples were diluted to a concentration of 2.5 µM with an organic eluent (49.5% v/v acetonitrile, 49.5% v/v methanol,1% v/v H2O), except ubiquitin containing samples which were diluted to the same concentration with acidified H2O (0.1% v/v formic acid). The samples were then analysed by flow-injection using an amazon speed ETD ion trap (Bruker Daltonics) in the positive ion mode over 0.4 min using the following experimental parameters: HV capillary ±4.5 kV, end plate offset –500 V, dry temp 180 °C, nebulizer 3 bar, dry gas 5 L min-1, scan range m/z 200–1400, target mass m/z 900, flow rate 5 µL min-1. For ubiquitin containing samples, the scan range was adapted to m/z 300– 2200 with a target mass of m/z 1100. Data
# [5] = test system: CT26 colon carcinoma; assay: Anti-tumour activity in subcutaneous CT26 allografts; type: in vivo, BALB/c mice; conditions: for tumour growth compared to vehicle-treated controls: i.p. over two weeks, 10 mg kg^−1 (1a, 2a), 30 mg kg^−1 (1b, 2b)
# Experimental: Tumour inhibition of the four compounds was evaluated in subcutaneous CT26 allografts using BALB/c mice, since it represents an appropriate immune competent mouse model to study colon carcinoma. The compounds were administered intraperitoneally (i.p.) over two weeks at doses of 10 mg kg^−1 for the 3-Et-NQ complexes and 30 mg kg^−1 for the 3-Morph-NQ complexes. The different dosages were selected as maximal tolerable doses (MTDs) after an initial toxicity screen (data not shown).
# Animals. All experiments were carried out with male Balb/c mice according to the regulation of the Ethics Committee for the Care and Use of Laboratory Animals at the Medical University Vienna (BMWF-2022-0.770.291), the guidelines from the Austrian Animal Science Association and the Federation of European Laboratory Animal Science Associations (FELASA). The animals were kept in a pathogen-free conditions, controlled environment with 12 h light–dark cycle with ad libitum access to food and water. Every procedure was done in a laminar airflow […]
# Treatment. CT-26 cells ([…] in 50 μL serum-free medium) were injected subcutaneously (s.c.) into the right flank of ten– to eleven-week-old male Balb/c mice. Three days after cell injection, all compounds (dissolved in 10% DMSO in water) were administered […]
# 1b/2b. Regarding anticancer activity experiments, mice were treated on 5 consecutive days […]
# over 2 weeks. […]
# T1 sequence (O00571 whole entry): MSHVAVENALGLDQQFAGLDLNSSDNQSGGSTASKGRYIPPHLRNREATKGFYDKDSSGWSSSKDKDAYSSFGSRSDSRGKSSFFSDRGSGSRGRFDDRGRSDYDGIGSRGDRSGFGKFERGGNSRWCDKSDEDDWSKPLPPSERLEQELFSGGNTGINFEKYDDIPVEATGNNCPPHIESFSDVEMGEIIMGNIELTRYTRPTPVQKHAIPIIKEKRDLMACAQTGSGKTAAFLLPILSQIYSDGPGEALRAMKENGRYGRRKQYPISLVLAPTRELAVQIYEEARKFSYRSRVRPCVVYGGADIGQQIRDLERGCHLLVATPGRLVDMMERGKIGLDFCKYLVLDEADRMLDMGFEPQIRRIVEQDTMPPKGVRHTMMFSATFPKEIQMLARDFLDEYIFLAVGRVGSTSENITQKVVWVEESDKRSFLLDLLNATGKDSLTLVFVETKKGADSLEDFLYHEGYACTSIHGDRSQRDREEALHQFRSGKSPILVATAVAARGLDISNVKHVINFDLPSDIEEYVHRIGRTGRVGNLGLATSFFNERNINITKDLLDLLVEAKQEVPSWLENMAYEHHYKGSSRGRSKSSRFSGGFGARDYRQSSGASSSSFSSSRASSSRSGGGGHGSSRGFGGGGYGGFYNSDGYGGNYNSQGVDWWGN
SMILES,direct interaction with DDX3X [1],IC50 [2] [µM],IC50 [3] [µM],reaction with nucleophile mixture within 24 h [4],"Intact compound after 24 h, nucleophile mixture [4] [%]","reduction in tumour volume on day 13 ([5]; 10 mg kg^−1 i.p. over two weeks, vs vehicle) [%]","tumour inhibition, 1-week experiment ([5]; 10 mg kg^−1 i.p., five consecutive days)",tumour growth compared to vehicle-treated controls [5]
"CCC1=C2[O][Ru][O]C2(n2cccn2)c2ccccc2C1=O.Cc1ccc(C(C)C)cc1 (stereo not drawn) [Compound 1a, [(3-ethyl-4-oxo-(pyrazolyl)-dihydronaphthalene)(cymene)ruthenium(II)]]",most probable direct binding partner,0.046 ± 0.007,62 ± 5,reacted nearly quantitatively,4,44,statistically significant tumour inhibition,significantly inhibit tumour growth
Cc1ccc(C(C)C)cc1.O=C1C(CN2CCOCC2)=C2[O][Ru][O]C2(n2cccn2)c2ccccc21 (stereo not drawn) [Compound 1b],,33 ± 2,150 ± 20,reacted nearly quantitatively,7,,,inactive
CCC1=C2[O][Os][O]C2(n2cccn2)c2ccccc2C1=O.Cc1ccc(C(C)C)cc1 (stereo not drawn) [Compound 2a],,,,,19,,,significantly inhibit tumour growth
